The target of one test is T1, human AT2R (Homo sapiens, UniProt P50052).
T1 construct: expressed in transfected cells
T1 sequence (P50052 1-363): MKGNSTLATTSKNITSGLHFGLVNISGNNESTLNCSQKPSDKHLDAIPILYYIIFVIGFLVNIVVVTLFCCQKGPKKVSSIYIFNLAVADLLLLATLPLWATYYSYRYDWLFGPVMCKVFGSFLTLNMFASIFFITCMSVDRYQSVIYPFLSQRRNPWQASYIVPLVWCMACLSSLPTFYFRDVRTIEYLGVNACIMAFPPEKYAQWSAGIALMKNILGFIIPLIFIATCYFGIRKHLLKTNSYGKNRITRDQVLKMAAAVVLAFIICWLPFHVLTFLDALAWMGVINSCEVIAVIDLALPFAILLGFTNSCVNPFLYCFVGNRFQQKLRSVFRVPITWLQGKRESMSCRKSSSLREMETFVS
Description: Competition radioligand binding (125I-Sar1-Ile8-AngII) in AT2R-transfected HEK-293 cells. Particulars: for Fold AT2R selectivity: AT2R over AT1R, Table 3.

In the next test the target is T2, human AT1R (Homo sapiens, UniProt P30556).
T2 construct: expressed in transfected cells
T2 sequence (P30556 1-359): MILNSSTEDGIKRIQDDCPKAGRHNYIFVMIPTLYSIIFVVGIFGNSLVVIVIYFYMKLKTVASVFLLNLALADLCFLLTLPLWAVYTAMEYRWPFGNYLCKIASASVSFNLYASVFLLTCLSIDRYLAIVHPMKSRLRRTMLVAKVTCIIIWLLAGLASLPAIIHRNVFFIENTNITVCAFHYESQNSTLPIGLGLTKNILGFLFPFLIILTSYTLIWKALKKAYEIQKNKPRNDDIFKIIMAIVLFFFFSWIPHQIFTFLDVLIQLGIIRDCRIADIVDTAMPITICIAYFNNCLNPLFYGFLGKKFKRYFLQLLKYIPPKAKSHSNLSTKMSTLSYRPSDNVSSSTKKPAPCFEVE
The test can be described thus: Competition radioligand binding (125I-Sar1-Ile8-AngII) in AT1R-transfected HEK-293 cells.

Test [1] relates to male FVB/N mice on high salt diet, heart. The test can be described thus: High salt (5%) diet intervention model, heart. The class given is in vivo, mouse. The note with it: for MMP-13 protein expression in heart (Western blot) / macrophage infiltration/expression in heart (F4/80) / expression of P-IκBα (marker for NFκB activation) in heart: weeks 5-8, captopril 3 mg/kg/day; for MMP-13 protein expression in heart (Western blot) / macrophage infiltration/expression in heart (F4/80): peptide 75 pmol/kg/min s.c.; for MMP-13 protein expression in heart (Western blot) / macrophage infiltration/expression in heart (F4/80) / expression of P-IκBα (marker for NFκB activation) in heart / cardiac fibrosis (picrosirius red): Cand 2 mg/kg/day; for expression of P-IκBα (marker for NFκB activation) in heart: peptides 75 pmol/kg/min s.c.; for cardiac fibrosis (picrosirius red): weeks 5-8 of high salt diet, peptides 75 pmol/kg/min s.c. mini-pump, captopril 3 mg/kg/day in drinking water. The method, then: (§1) C) In the intervention (or reversal) model, male FVB/N mice were treated with selective AT2Rs agonists after the establishment of cardiovascular disease using a high salt diet, in order to reverse cardiovascular pathologies. In some experiments, the ACE inhibitor captopril (dose) or the ARB candesartan cilexetil (dose) were given for 4 weeks in drinking water. Organs examined included heart, kidney and liver and these were compared to either untreated mice or high salt-fed mice that were treated with saline.
A high-salt diet (5% salt) model is a clinically relevant and disease-reversal model which can replicate the high salt intake by humans which is currently a growing problem in the developed countries. High salt intake induces changes in the cardiovascular system and induces remodelling and fibrosis in the heart, kidney and liver.
(§2) Mice were placed on either a normal rodent diet (0.35% NaCl) which acted as control or a high salt diet (5% sodium in food chow) for 8 weeks. After 4 weeks, mice were also treated subcutaneously (via osmotic mini-pump) with either saline or an AT2R agonist (75 pmol/kg/min subcutaneously) for 4 weeks. Mice continued to be fed a high salt diet whilst receiving these treatments.
All mice which underwent surgery were anaesthetized with Isoflurane (Isorrane) (5% induction and 2.5% maintenance) and an incision made in the midscapular region through which osmotic minipumps (Alzet model 2004, Alza Corp) were inserted for subcutaneous drug administration. The incision area was sutured with 6/0 DY silk (Dynek Pty Ltd) and antibiotic powder applied (Cicatrin, Pfizer) followed by intramuscular injection of the analgesic Cartrophen (0.1 ml of a 1.5 mg/ml stock solution; Biopharm Australia). Systolic blood pressure (SBP) was measured using non-invasive tail-cuff plethysmography apparatus (MC4000 Blood Pressure Analysis System, Hatteras Instrument Inc) before drug treatment (week 0), and then fortnightly. At the end of the 8 week treatment period mice were weighed before being killed by overdose of isoflurane inhalation and cervical dislocation.
To measure collagen deposition, frozen sections of heart, kidney or aorta (all 5 μm thickness) were air dried for 10 minutes and were brought through 3 times xylene (2 minutes each), and 3 times absolute alcohol washes before being rinsed in tap H2O for 30 seconds. Staining with an optimal concentration of picrosirius red (in this instance 0.05% picrosirius red diluted in saturated picric acid) was performed and left for an hour. Sections were then rinsed in water and differentiated in 0.01M HCl for 2 minutes, followed by dehydration via 3 times absolute alcohol washes. Then, slides were brought through 3 times xylene washes before being cover slipped according to standard histological techniques using DPX as the mounting medium. Images were taken under ×20 magnification, using bright field (Olympus, BX51) and circularized polarized light microscopy (DM IRB, Leica) while percentage of positive interstitial collagen staining per total field of view was quantified using ImageJ 1.46 software (Java, NIH), and averaged out from a total of eight views as the final percentage collagen content in a particular animal.
Immunostaining was performed on 5 μm thick transverse frozen heart sections. These sections were air dried and fixed in ice-cold acetone for approximately 15 minutes before washing with 0.01M PBS buffer (3×10 minutes). Sections were then incubated with 10% goat serum in 0.01M PBS for 30 minutes to reduce non-specific binding. If the primary antibody is raised in goat, this pre-blocked medium is substituted with 5% BSA in PBS and Triton-X. Next, blocking buffers were removed and the primary antibody to respective markers were applied overnight at room temperature based on the following dilution and origin of the antibodies: α-SMA (1:500, Abcam), Vimentin (1:500, Santa Cruz), P-IκBα (1:200, Cell Signalling), F4/80 macrophage (1:100, Serotec). […]

For test [2], the system named is male FVB/N mice on high salt diet, liver. Description: High salt (5%) diet intervention model, liver. The class given is in vivo, mouse. The note with it: weeks 5-8; peptides 75 pmol/kg/min s.c.; Cand 2 mg/kg/day, captopril 3 mg/kg/day. The method, then:
as §1, §2
Liver sections used either picrosirius red staining or Masson's trichome staining as described above. Higher concentrations of picrosirius red were often used under polarized light microscopy. The liver was removed and sectioned with half of the liver placed in 10% formalin and the rest frozen in liquid nitrogen before being stored in ˜80° C. freezer for future use. Formalin fixed, paraffin embedded livers were sectioned at thickness of 4 μm and were stained with Masson's trichrome according to standard procedures for analysis of liver fibrosis. […] Sections were re-fixed in Bouin's solution for 1 hour at 56° C. to improve staining quality then rinsed in running tap water for 5-10 minutes to remove yellow colour. Following this, sections were stained in Weigert's iron hematoxylin working solution for 10 minutes. Rinsed in running warm tap water for 10 minutes. Washed in distilled water. Stained in Biebrich scarlet-acid fuchsin solution for 10-15 minutes.
Washed in distilled water. Differentiated in phosphomolybdic-phosphotungstic acid solution for 10-15 minutes or until collagen was no longer red. Sections were transferred directly (without rinse) to aniline blue solution and stained for 5-10 minutes. Rinsed briefly in distilled water and differentiated in 1% acetic acid solution for 2-5 minutes. Washed in distilled water. […] Mounted with DPX mounting medium. Quantification of liver fibrosis was performed using images captured with the Aperio scanner (Monash Histology Platform, Monash University), with ×5 magnification. Each liver section had 5 different fields of view photographed at this magnification. Percentage of interstitial and perivascular collagen was analysed and quantified using ImageJ 1.48 software (Java, NIH), and the percentage from 5 random fields of view were averaged for final percentage of collagen for that particular animal. All analysis of collagen expression was conducted in a blinded fashion.

The mark [3] stands for this setting: PD123319 1 mg/kg/day s.c. with β-Pro7-Ang III or D-Arg2-β-Pro7-Ang III.

Description for human AT2R: This will lead to the generation of IC50 values that determine the relative ability of test compounds to interact with both Angiotensin receptors.
Cells were grown to approximately 80% confluence before being re-plated into 48 well plates at 1×10^5 cells/well and grown for 48 hours at 37° C. for a whole cell competition binding assay. [125I]-Sar1Ile8Ang II at 50,000 cpm, incubated for 45 minutes at 37° C., in the absence or presence of unlabeled ligands, prepared in binding buffer (DMEM, 0.1% BSA), were used in the competition assays at concentrations ranging from 1 μM to 10 μM. For each experiment, each ligand concentration was tested in duplicate or triplicate, and each experiment was repeated at least 3 separate times. […] The ability of each ligand to inhibit specific binding of [125I]-Sar1Ile8Ang II was measured on a gamma counter with all counts corrected for NSB.

`CC[C@H](C)[C@H](NC(=O)[C@H](Cc1ccc(O)cc1)NC(=O)[C@@H](NC(=O)[C@H](N)CCCNC(=N)N)C(C)C)C(=O)N[C@@H](Cc1c[nH]cn1)C(=O)N1CCC[C@H]1C(=O)N[C@@H](Cc1ccccc1)C(=O)O` [D-Arg-Ang III, D-Arg-Val-Tyr-Ile-His-Pro-Phe]: the “Fold AT2R selectivity” value on human AT2R was 400 fold. Besides, the 50% inhibitory concentration (IC50) on human AT1R (125I-Sar1-Ile8-AngII) was above 10 µM.
For the molecule `Cc1cc(Cn2cnc3c2C[C@@H](C(=O)O)N(C(=O)C(c2ccccc2)c2ccccc2)C3)ccc1N(C)C` [PD123319, reference compound], in test [1] (setting [3]), the “effect of AT2R antagonist co-treatment on peptide anti-fibrotic effect (cardiac fibrosis, picrosirius red)” value is “attenuated the anti-fibrotic effects of these peptides” and the “effect of AT2R antagonist co-treatment on peptide inhibition of myofibroblast differentiation (α-SMA)” value was “attenuated the inhibitory effects of these peptides”.
Regarding `CCOc1nc2cccc(C(=O)OC(C)OC(=O)OC3CCCCC3)c2n1Cc1ccc(-c2ccccc2-c2nnn[nH]2)cc1` (stereo not drawn) [candesartan cilexetil, reference compound], in test [1], the “MMP-13 protein expression in heart (Western blot)” value is recorded as “Neither captopril nor Cand altered MMP-13 levels”, the “macrophage infiltration/expression in heart (F4/80)” value is “reversed by all agents”, the “expression of P-IκBα (marker for NFκB activation) in heart” value is reported as “reversed only by β-Ile^5-Ang II” and the “cardiac fibrosis (picrosirius red)” value is recorded as “did not significantly reduce fibrosis”.
Regarding `C[C@H](CS)C(=O)N1CCC[C@H]1C(=O)O` [captopril, reference compound], in test [1], the “MMP-13 protein expression in heart (Western blot)” value was “Neither captopril nor Cand altered MMP-13 levels”, the “macrophage infiltration/expression in heart (F4/80)” value is “reversed by all agents”, the “expression of P-IκBα (marker for NFκB activation) in heart” value is recorded as “reversed only by β-Ile^5-Ang II” and the “cardiac fibrosis (picrosirius red)” value is given as “also reversed fibrosis”. Further, in test [2], the “liver fibrosis (picrosirius red, polarized light)” value is reported as “similarly inhibited the pro-fibrotic effects of high salt in the liver” and the “liver steatosis (Oil Red O)” value is on record as “significantly reduced excess lipid accumulation”.
On to `CC[C@H](C)[C@H](NC(=O)C[C@H](Cc1ccc(O)cc1)NC(=O)[C@@H](NC(=O)[C@@H](N)CCCNC(=N)N)C(C)C)C(=O)N[C@@H](Cc1c[nH]cn1)C(=O)N1CCC[C@H]1C(=O)N[C@@H](Cc1c[nH]c2ccccc12)C(=O)O` [βTyr-Trp-8-Ang III, Arg-Val-β-Tyr-Ile-His-Pro-Trp], for which the “binding at AT2R (displacement of 125I-Sar1-Ile8-AngII), in words” value on human AT2R (transfected HEK-293 cells) is on record as “high affinity”. In addition, the “binding at AT1R (displacement of 125I-Sar1-Ile8-AngII), in words” value on human AT1R is listed as “bind poorly”.
Take “Arg-Val-Tyr-Ile-His-β-Pro-Ala [βPro-Ala-8-Ang III]”: the “Fold AT2R selectivity” value on human AT2R was found to be 200 fold.
Same read-out and setting: to “Arg-Val-Tyr-β-Ile-His-Pro-Trp [βILe-Trp-8-Ang III]” belongs above 2500 fold.
The same measure, in the same setting: the figure for “Nicotinamido-Arg-Val-Tyr-Ile-His-β-Pro-Trp [Nic-βPro-Trp-8-Ang III]” is >15,000 fold; for “Tetrazole-CONH- Arg-Val-Tyr-Ile-His- β-Pro-Phe [Tet-βPro-Ang III]” it is >60,000 fold.
On the same count and under the same terms, to “Tetrazole-CONH-Arg-Val-Tyr-Ile-His-β-Pro-Trp [Tet-βPro-Trp-8-Ang III]” belongs >275,000 fold.

For the origin of these results see patent US11331368B2, “Angiotensin receptor agonists and uses thereof” (Monash University, priority 2017, dated 2022).
